Values quoted from earlier work in patent US20240307300A1, “AN IMPROVED PROCESS FOR THE PREPARATION OF AN AQUEOUS OPHTHALMIC SOLUTION OF DIFLUPREDNATE” (SUN PHARMA ADVANCED RESEARCH COMPANY LIMITED, priority 2021, published 2024).

Conditions: background statement

solubility in aqueous vehicle: practically insoluble
Structure (SMILES): CCCC(=O)O[C@]1(C(=O)COC(C)=O)CC[C@H]2[C@@H]3C[C@H](F)C4=CC(=O)C=C[C@]4(C)[C@@]3(F)[C@@H](O)C[C@@]21C [Difluprednate]
